Measurements as given in patent publication US20060135589A1, “1h-Indazole-3-carboxamide compounds as cyclin dependent kinase (cdk) inhibitors” (Astex Technology, Inc., priority 2002, published 2006).

Target: T1, CDK2/CyclinA (Homo sapiens, UniProt P24941)
T1 construct: purchased Upstate Biotechnology
Test: Measurement of CDK2 kinase inhibitory activity (IC50), 33P-ATP / histone H1 filter assay
Assay type: biochemical
Protocol: Measurement of CDK2 Kinase Inhibitory Activity (IC50)
Compounds of the invention were tested for kinase inhibitory activity using the following protocol.
1.7 μl of active CDK2/CyclinA (Upstate Biotechnology, 10 U/μl) is diluted in assay buffer (250 μl of 10× strength assay buffer (200 mM MOPS pH 7.2, 250 mM β-glycerophosphate, 50 mM EDTA, 150 mM MgCl2), 11.27 μl 10 mM ATP, 2.5 μl 1M DTT, 25 μl 100 mM sodium orthovanadate, 708.53 μl H2O), and 10 μl mixed with 10 μl of histone substrate mix (60 μl bovine histone H1 (Upstate Biotechnology, 5 mg/ml), 940 μl H2O, 35 μCi γ^33P-ATP) and added to 96 well plates along with 5 μl of various dilutions of the test compound in DMSO (up to 2.5%). The reaction is allowed to proceed for 5 hours before being stopped with an excess of ortho-phosphoric acid (30 μl at 2%).
γ^33P-ATP which remains unincorporated into the histone H1 is separated from phosphorylated histone H1 on a Millipore MAPH filter plate. The wells of the MAPH plate are wetted with 0.5% orthophosphoric acid, and then the results of the reaction are filtered with a Millipore vacuum filtration unit through the wells. Following filtration, the residue is washed twice with 200 μl of 0.5% orthophosphoric acid. Once the filters have dried, 25 μl of Microscint 20 scintillant is added, and then counted on a Packard Topcount for 30 seconds.

| Structure (SMILES) | inhibition at 50 µM [%] |
| --- | --- |
| O=C(Nc1cccc(-c2nnn[nH]2)c1)c1n[nH]c2ccccc12 [Example 4, N-[3-(1H-tetrazol-5-yl)phenyl]-1H-indazole-3-carboxamide] | ≥ 50 |
| CC(=O)NCc1ccc(NC(=O)c2n[nH]c3ccccc23)cc1 [Example 5, N-[4-(acetylaminomethyl)phenyl]-1H-indazole-3-carboxamide] | ≥ 50 |
| O=C(Nc1ccc(N2CCCC2=O)cc1)c1n[nH]c2ccccc12 [Example 6, N-[4-(2-oxopyrrolidin-1-yl)phenyl]-1H-indazole-3-carboxamide] | ≥ 50 |
| O=C(Nc1cccc(-c2cnco2)c1)c1n[nH]c2ccccc12 [Example 7, N-[3-(oxazol-5-yl)phenyl)-1H-indazole-3-carboxamide] | ≥ 50 |
| O=C(Nc1ccc(-c2c[nH]cn2)cc1)c1n[nH]c2ccccc12 [Example 8, N-[4-(1H-imidazol-4-yl)phenyl]-1H-indazole-3-carboxamide] | ≥ 50 |
| CS(=O)(=O)c1cccc(NC(=O)c2n[nH]c3ccccc23)c1 [Example 9, N-[3-methanesulphonylphenyl]-1H-indazole-3-carboxamide] | ≥ 50 |
| O=C(Nc1ccc(S(=O)(=O)N2CCOCC2)cc1)c1n[nH]c2ccccc12 [Example 10, N-[4-(morpholine-4-sulphonyl)phenyl]-1H-indazole-3-carboxamide] | ≥ 50 |
| O=C(Nc1ccccc1)c1n[nH]c2ccc(I)cc12 [Example 11, N-phenyl-5-iodo-1H-indazole-3-carboxamide] | ≥ 50 |
| NS(=O)(=O)c1ccc(NC(=O)c2n[nH]c3ccc(I)cc23)cc1 [Example 12, N-(4-aminosulphonylphenyl)-5-iodo-1H-indazole-3-carboxamide] | ≥ 50 |
| CNS(=O)(=O)Cc1ccc(NC(=O)c2n[nH]c3ccc(I)cc23)cc1 [Example 13] | ≥ 50 |
| CS(=O)(=O)c1cccc(NC(=O)c2n[nH]c3ccc(I)cc23)c1 [Example 14, N-(3-methanesulphonylphenyl)-5-iodo-1H-indazole-3-carboxamide] | ≥ 50 |
| CC(=O)NCc1ccc(NC(=O)c2n[nH]c3ccc(I)cc23)cc1 [Example 15, N-[4-(acetylaminomethyl)phenyl]-5-iodo-1H-indazole-3-carboxamide] | ≥ 50 |
| O=C(Nc1ccc([N+](=O)[O-])cn1)c1n[nH]c2ccc(I)cc12 [Example 16, N-(5-nitro-pyridin-2-yl)-5-Iodo-1H-indazole-3-carboxamide] | ≥ 50 |
| O=C(Nc1ccccc1)c1n[nH]c2ccc(N3CCOCC3)cc12 [Example 17, 5-Morpholin-4-yl-1H-indazole-3-carboxylic acid phenylamide] | ≥ 50 |
| NS(=O)(=O)c1ccc(NC(=O)c2n[nH]c3ccc([N+](=O)[O-])cc23)cc1 [Example 18, 5-Nitro-1H-indazole-3-carboxylic acid (4-sulphamoyl-phenyl)-amide] | ≥ 50 |
| CNS(=O)(=O)Cc1ccc(NC(=O)c2n[nH]c3ccc([N+](=O)[O-])cc23)cc1 [Example 19, 5-Nitro-1H-indazole-3-carboxylic acid (4-methylsulphamoylmethyl-phenyl)-amide] | ≥ 50 |
| CNS(=O)(=O)Cc1ccc(NC(=O)c2n[nH]c3ccc(-c4cccs4)cc23)cc1 [Example 21, 5-Thiophen-2-yl-1H-indazole-3-carboxylic acid (4-methylsulphamoylmethyl-phenyl)-amide] | ≥ 50 |
| CNS(=O)(=O)Cc1ccc(NC(=O)c2n[nH]c3ccc(-c4c(C)noc4C)cc23)cc1 [Example 22, 5-(3,5-Dimethyl-isoxazol-4-yl)-1H-indazole-3-carboxylic acid (4-methylsulphamoylmethyl-phenyl)-amide] | ≥ 50 |
| CNS(=O)(=O)Cc1ccc(NC(=O)c2n[nH]c3ccc(-c4ccco4)cc23)cc1 [Example 23, 5-Furan-2-yl-1H-indazole-3-carboxylic acid (4-methylsulphamoylmethyl-phenyl)-amide] | ≥ 50 |

| Structure (SMILES) | inhibition at 50 µM [%] |
| --- | --- |
| CNS(=O)(=O)Cc1ccc(NC(=O)c2n[nH]c3ccc(-c4cc5ccccc5o4)cc23)cc1 [Example 24, 5-Benzofuran-2-yl-1H-indazole-3-carboxylic acid (4-methylsulphamoylmethyl-phenyl)-amide] | ≥ 50 |
| CNS(=O)(=O)Cc1ccc(NC(=O)c2n[nH]c3ccc(Cl)cc23)cc1 [Example 25, 5-Chloro-1H-indazole-3-carboxylic acid (4-methylsulphamoylmethyl-phenyl)-amide] | ≥ 50 |
| NS(=O)(=O)c1ccc(NC(=O)c2n[nH]c3ccccc23)cc1 [Example 26, 1H-Indazole-3-carboxylic acid (4-sulphamoyl-phenyl)-amide] | ≥ 50 |
| O=C(Nc1ccccc1)c1n[nH]c2ccccc12 [Example 27] | ≥ 50 |
| O=C(Nc1ccc(Cl)nc1)c1n[nH]c2ccccc12 [Example 28, 1H-Indazole-3-carboxylic acid (6-chloro-pyridin-3-yl)-amide] | ≥ 50 |
| CNS(=O)(=O)Cc1ccc(NC(=O)c2n[nH]c3ccc(-c4nccs4)cc23)cc1 [Example 29, 5-Thiazol-2-yl-1H-indazole-3-carboxylic acid (4-methylsulphamoylmethyl-phenyl)-amide] | ≥ 50 |
| O=C(Nc1ccc(S(=O)(=O)Nc2nccs2)cc1)c1n[nH]c2ccccc12 [Example 31] | ≥ 50 |
| CNS(=O)(=O)Cc1ccc(NC(=O)c2n[nH]c3ccc(-c4ccccc4)cc23)cc1 [Example 32] | ≥ 50 |
| CS(=O)(=O)NCc1ccc(NC(=O)c2n[nH]c3ccc([N+](=O)[O-])cc23)cc1 [Example 33] | ≥ 50 |
| CCOC(=O)N1CCC(NC(=O)c2n[nH]c3ccc([N+](=O)[O-])cc23)CC1 [Example 34] | ≥ 50 |
| CCCCNC(=O)NS(=O)(=O)c1ccc(NC(=O)c2n[nH]c3ccccc23)cc1 [Example 35] | ≥ 50 |
| N=C(N)NS(=O)(=O)c1ccc(NC(=O)c2n[nH]c3ccccc23)cc1 [Example 36] | ≥ 50 |
| O=C(NC1CCN(Cc2ccccc2)C1)c1n[nH]c2ccc(Cl)cc12 (stereo not drawn) [Example 37] | ≥ 50 |
| CCOC(=O)N1CCC(NC(=O)c2n[nH]c3ccc(Cl)cc23)CC1 [Example 38] | ≥ 50 |
| COc1ccc(NC(=O)c2n[nH]c3ccc(I)cc23)cn1 [Example 39] | ≥ 50 |
| O=C(Nc1cccnc1)c1n[nH]c2ccc(I)cc12 [Example 40] | ≥ 50 |
| O=C(Nc1cnc2ccccc2c1)c1n[nH]c2ccc(I)cc12 [Example 41] | ≥ 50 |
| O=C(NC1CCOCC1)c1n[nH]c2ccc(Cl)cc12 [Example 42] | ≥ 50 |
| CN1CCC(NC(=O)c2n[nH]c3ccc(Cl)cc23)CC1 [Example 43] | ≥ 50 |

| Structure (SMILES) | inhibition at 50 µM [%] |
| --- | --- |
| O=C(Nc1cccnc1Cl)c1n[nH]c2ccc(I)cc12 [Example 44] | ≥ 50 |
| O=C(NCc1ccccc1)c1n[nH]c2ccc(Cl)cc12 [Example 45] | ≥ 50 |
| CN1CCN(c2ccc(CNC(=O)c3n[nH]c4ccc(Cl)cc34)cc2)CC1 [Example 46] | ≥ 50 |
| O=C(Nc1cccnc1)c1n[nH]c2ccc(Cl)cc12 [Example 47] | ≥ 50 |
| N#Cc1ccc(NC(=O)c2n[nH]c3ccc(I)cc23)cn1 [Example 48] | ≥ 50 |
| O=C(Nc1ccccc1)c1n[nH]c2ccc(Cl)cc12 [Example 49] | ≥ 50 |
| Cc1ccc(NC(=O)c2n[nH]c3ccc(I)cc23)nn1 [Example 50] | ≥ 50 |
| CCc1nnc(NC(=O)c2n[nH]c3ccc(Cl)cc23)s1 [Example 51] | ≥ 50 |
| O=C(Nc1ccc(N2CCOCC2)cc1)c1n[nH]c2ccc(I)cc12 [Example 52] | ≥ 50 |
| O=C(Nc1ccc[nH]c1=O)c1n[nH]c2ccc(I)cc12 [Example 53] | ≥ 50 |
| O=C(Nc1ccc(N2CCOCC2)cc1)c1n[nH]c2ccccc12 [Example 54] | ≥ 50 |
| O=C(Nc1ccccc1)c1n[nH]c2ccc([N+](=O)[O-])cc12 [Example 55] | ≥ 50 |
| O=C(Nc1ccc(Cl)nc1)c1n[nH]c2ccc(I)cc12 [Example 56] | ≥ 50 |
| CC(C)(C)OC(=O)N1CCC(NC(=O)c2n[nH]c3ccccc23)CC1 [Example 57] | ≥ 50 |
| O=C(Nc1ccc(F)cc1)c1n[nH]c2ccc(I)cc12 [Example 58] | ≥ 50 |
| CC(=O)Nc1ccc(NC(=O)c2n[nH]c3ccc(I)cc23)cn1 [Example 59] | ≥ 50 |
| Nc1ccc2[nH]nc(C(=O)Nc3ccccc3)c2c1 [Example 60, 5-Amino-1H-indazole-3-carboxylic acid phenylamide] | ≥ 50 |
| CNS(=O)(=O)Cc1ccc(NC(=O)c2n[nH]c3ccc(NC(=O)NCCCl)cc23)cc1 [Example 63, 5-[3-(2-Chloro-ethyl)-ureido]-1H-indazole-3-carboxylic acid (4-methylsulphamoylmethyl-phenyl)-amide] | ≥ 50 |
| O=C(NC1CCNCC1)c1n[nH]c2ccc(I)cc12 [Example 64, 5-Iodo-1H-indazole-3-carboxylic acid piperidin-4-ylamide] | ≥ 50 |
